Tested on: LLC cells
Experiment: Lewis lung carcinoma (LLC) model with anti-PD-1 antibody
Assay type: in vivo, C57BL/6 mice
Experimental: For FIGS. 12A-12E, C57BL/6 mice were subcutaneously injected with B16 tumor cells and administered 100 μg anti-CTLA-4 mAb or isotype control intraperitoneally four times at 3-day intervals up to 16 days. 3-IAld was administered intragastrically every other day. Mice were evaluated for (FIG. 12A) tumor growth, (FIG. 12B) histology (periodic acid-Schiff staining), (FIG. 12C) immunohistochemistry for CD8+ and CD4+ tumor-infiltrating lymphocytes (TIL), (FIG. 12D) number of positive TIL per high-power field, HPF and (FIG. 12E) Cxcl9 and Perforin expression. (FIGS. 12F-12J) C57BL/6 mice were orthotopically injected with LLC cells and administered 200 μg anti-PD-1 mAb or isotype control intraperitoneally five times at 3-day intervals up to 18 days. 3-IAld was administered intragastrically every other day. Mice were evaluated for (FIG. 12F) % survival, (FIG. 12G) lung weight, (FIG. 12H) lung gross pathology, (FIGS. 12I, 12J) CD4+CD25+Foxp3+ cells. Photographs were taken with a high-resolution microscope, ×40 magnification (scale bars, 100 μm). Each in vivo experiment includes three mice per group (nine mice in each experiment). Data are represented as mean±SEM. One-way analysis of variance, Bonferroni post hoc test. *P<0.05, **P<0.01, ***P<0.001.
The potential application of 3-IAld requires that its immunoregulatory activity would not impinge the tumor immunosurveillance. To this purpose, the effect of 3-IAld was assessed in the anti-CTLA-4-responsive B16 melanoma model (Renga et al, 2022).

O=Cc1c[nH]c2ccccc12 [3-IAld, 1H-indole-3-carbaldehyde]
therapeutic efficacy of anti-PD-1 antibody (3-IAld with 200 μg anti-PD-1 mAb): did not interfere | ability of anti-PD-1 antibody to increase survival (3-IAld with anti-PD-1 mAb): did not prevent | ability of anti-PD-1 antibody to reduce the recruitment of Foxp3+CD25+ Treg cells in the lung (3-IAld with anti-PD-1 mAb): did not prevent | ability of anti-PD-1 antibody to improve gross pathology (3-IAld with anti-PD-1 mAb, lung): did not prevent | ability of anti-PD-1 antibody to decrease tumour growth (3-IAld with anti-PD-1 mAb, lung weight): did not prevent
